The source of these data is ChEMBL document CHEMBL2331278, “Synthesis, pharmacological evaluation and QSAR modeling of mono-substituted 4-phenylpiperidines and 4-phenylpiperazines” (Eur J Med Chem, 2013).

Assay [1] deals with Rattus norvegicus. The experiment in a line: Reduction in DOPAC level in Sprague-Dawley rat striatum at 100 umol/kg, sc measured after 1 hr relative to control. The format is functional.
The next assay concerns the target D(2) dopamine receptor (Homo sapiens, UniProt P14416). The experiment in a line: Displacement of [3H]7-OH-DPAT from human D2S receptor high affinity site expressed in HEK293 cells. The class given is cell-based. For orientation: In a radioligand displacement assay an active substance lowers the binding of a labelled ligand.
Assay [2] has as its system Rattus norvegicus. The experiment in a line: Reduction in DOPAC level in Sprague-Dawley rat striatum at 33 umol/kg, sc measured after 1 hr relative to control. Further details: scale not given: the % may be the effect or the level left. The format is functional.
In assay [3] the target is T1, Amine oxidase [flavin-containing] A (Rattus norvegicus, UniProt P21396).
T1 sequence (P21396 whole entry): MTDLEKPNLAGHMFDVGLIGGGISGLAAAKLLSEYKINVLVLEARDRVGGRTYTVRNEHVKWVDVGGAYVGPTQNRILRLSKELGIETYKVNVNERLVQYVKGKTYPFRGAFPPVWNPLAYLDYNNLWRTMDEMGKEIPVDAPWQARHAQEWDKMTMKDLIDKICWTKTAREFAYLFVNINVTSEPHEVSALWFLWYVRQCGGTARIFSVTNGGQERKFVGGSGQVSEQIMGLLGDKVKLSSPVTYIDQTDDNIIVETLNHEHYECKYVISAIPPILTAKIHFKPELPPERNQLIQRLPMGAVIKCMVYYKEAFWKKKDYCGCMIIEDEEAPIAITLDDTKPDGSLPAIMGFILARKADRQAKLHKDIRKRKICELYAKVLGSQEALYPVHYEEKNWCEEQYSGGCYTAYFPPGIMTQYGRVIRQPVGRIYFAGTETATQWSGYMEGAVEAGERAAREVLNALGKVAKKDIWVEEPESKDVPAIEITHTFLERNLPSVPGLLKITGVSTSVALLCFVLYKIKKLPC
The experiment in a line: Displacement of [3H]Ro 41-1049 from rat MAO-A receptor expressed in HEK293 cells. The class given is cell-based.

The test system of assay [4] is Rattus norvegicus. The experiment in a line: Reduction in DOPAC level in Sprague-Dawley rat striatum at 50 umol/kg, sc measured after 1 hr relative to control. The format is functional. Further details: scale not given: the % may be the effect or the level left.

Molecules are shown by their SMILES.

Chain of D(2) dopamine receptor (P14416 whole entry): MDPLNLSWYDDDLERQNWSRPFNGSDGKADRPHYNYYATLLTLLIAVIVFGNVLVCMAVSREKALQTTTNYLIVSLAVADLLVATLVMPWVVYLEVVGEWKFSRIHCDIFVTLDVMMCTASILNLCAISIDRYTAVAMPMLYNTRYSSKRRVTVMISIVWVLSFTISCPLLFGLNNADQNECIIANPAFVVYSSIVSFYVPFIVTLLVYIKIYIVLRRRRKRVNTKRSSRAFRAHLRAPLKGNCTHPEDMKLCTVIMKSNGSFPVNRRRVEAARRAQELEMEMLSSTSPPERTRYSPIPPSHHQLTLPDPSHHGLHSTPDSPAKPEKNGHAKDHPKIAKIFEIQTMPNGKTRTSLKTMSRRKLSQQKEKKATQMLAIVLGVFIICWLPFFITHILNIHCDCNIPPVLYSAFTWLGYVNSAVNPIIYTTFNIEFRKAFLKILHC

For `CCCN1CCN(c2ccccc2)CC1`, the “DOPAC level (% of control)” value in the assay with Rattus norvegicus [1] worked out at 181%. On D(2) dopamine receptor, this molecule displayed a Ki of 0.47 µM. Consider `CCCN1CCC(c2ccccc2)CC1`, for which the “DOPAC level (% of control)” value with Rattus norvegicus [1] worked out at 131%. Further, the Ki at D(2) dopamine receptor came out at 0.17 µM. As for `CCCN1CCC(c2ccc(Cl)cc2)CC1`, the Ki at D(2) dopamine receptor turned out to be 0.9 µM. The molecule `CCCN1CCC(c2ccc(OC)cc2)CC1` yielded a Ki on D(2) dopamine receptor of 23 µM.

Turning to `CCCN1CCC(c2cccc(S(=O)(=O)C(C)C)c2)CC1`, the “DOPAC level (% of control)” value with Rattus norvegicus [1] is 205%. The same measure, in the same setting: then `CCCN1CCC(c2cccc(C)c2)CC1`, with 115%; and `CCCN1CCC(c2cccc(S(=O)(=O)C(F)(F)F)c2)CC1`, with 258%. For the molecule `CCCN1CCC(c2ccccc2OC)CC1`, the Activity in the assay with Rattus norvegicus [2] stood at 277%. Moreover, the Ki amounted to 2.4 µM in assay [3] (read-out: Ki) and 0.012 µM on D(2) dopamine receptor.

`CCCN1CCC(c2ccccc2C(F)(F)F)CC1`: the “DOPAC level (% of control)” value in the assay with Rattus norvegicus [1] worked out at 254%. Consider `CCCN1CCN(c2ccccc2S(C)(=O)=O)CC1`, for which, in the assay on Rattus norvegicus [1], the “DOPAC level (% of control)” value was 283%. Also, the results for the Ki (in assay [3] (read-out: Ki); in assay [3] (read-out: pKi (converted)); on D(2) dopamine receptor) were over 583 µM, over 631 µM and 0.58 µM, respectively.

Consider `CCCN1CCC(c2ccccc2OS(=O)(=O)C(F)(F)F)CC1`, for which the “DOPAC level (% of control)” value in the assay with Rattus norvegicus [1] is 270%. Take `CCCN1CCC(c2cccc(OC)c2)CC1`: the “DOPAC level (% of control)” value with Rattus norvegicus [1] is reported as 140%. Besides, the Ki in assay [3] (read-out: Ki) came out at 18 µM; at D(2) dopamine receptor, 1.5 µM. As for `CCCN1CCC(c2cccc(C(F)(F)F)c2)CC1`, in the assay on Rattus norvegicus [1], the “DOPAC level (% of control)” value is on record as 260%. Further, the Ki in assay [3] (read-out: Ki) was 128 µM; on D(2) dopamine receptor, 0.18 µM. With `CCCN1CCC(c2cccc(C#N)c2)CC1`, the “DOPAC level (% of control)” value with Rattus norvegicus [1] was 275%.

On to `CCCN1CCN(c2cccc(OS(=O)(=O)C(F)(F)F)c2)CC1`, for which the “DOPAC level (% of control)” value in the assay on Rattus norvegicus [1] came to 285%. Still for that read-out and setting: then `CCCN1CCC(c2cccc(OS(=O)(=O)C(F)(F)F)c2)CC1`, with 241%. Take `CCCN1CCC(c2cccc(S(=O)(=O)C3CCCC3)c2)CC1`: the “DOPAC level (% of control)” value with Rattus norvegicus [1] is given as 170%. In addition, the figures for the Ki (in assay [3] (read-out: Ki); in assay [3] (read-out: pKi (converted)); at D(2) dopamine receptor) were over 583 µM, over 631 µM and 3.8 µM, respectively.

With `CCCN1CCN(c2cccc(S(=O)(=O)c3ccccc3)c2)CC1`, the “DOPAC level (% of control)” value in the assay with Rattus norvegicus [1] was determined as 152%.

With `CCCN1CCN(c2cccc(C(C)=O)c2)CC1`, in the assay with Rattus norvegicus [1], the “DOPAC level (% of control)” value is given as 221%. In the case of `CCCN1CCC(c2cccc(OC(C)C)c2)CC1`, the “DOPAC level (% of control)” value in the assay with Rattus norvegicus [1] worked out at 112%. Regarding `CCCN1CCC(c2cccc(N3CCOCC3)c2)CC1`, the “DOPAC level (% of control)” value with Rattus norvegicus [1] is 105%.

The molecule `CCCN1CCN(c2cccc(OS(C)(=O)=O)c2)CC1` gave an Activity in the assay on Rattus norvegicus [4] of 254%. Regarding `CCCN1CCC(c2cccc(OC(C)(C)C)c2)CC1`, in the assay on Rattus norvegicus [1], the “DOPAC level (% of control)” value came out at 196%. On the same count and under the same terms, then `CCCN1CCN(c2cccc(Cl)c2)CC1`, with 250%. `CCCN1CCN(c2ccccc2C#N)CC1` had an Activity in the assay with Rattus norvegicus [2] of 313%. In the case of `CCCN1CCN(c2cccc(O)c2)CC1`, the Ki in assay [3] (read-out: Ki) was over 583 µM; in assay [3] (read-out: pKi (converted)), over 631 µM. Molecule `CCCN1CCN(c2ccc(OC)cc2)CC1` returned a Ki on D(2) dopamine receptor of 6.4 µM. For the molecule `CCCN1CCN(c2cccc(OC)c2)CC1`, the “DOPAC level (% of control)” value in the assay with Rattus norvegicus [1] is reported as 255%. The Ki in assay [3] (read-out: Ki) was determined as 16 µM; at D(2) dopamine receptor it was 0.3 µM. In the case of `CCCN1CCN(c2ccccc2C)CC1`, the “DOPAC level (% of control)” value with Rattus norvegicus [1] is 327%. The same measure, in the same setting: then `CCCN1CCN(c2ccccc2Cl)CC1`, with 368%. In the case of `CCCN1CCN(c2cccc(C#N)c2)CC1`, in the assay with Rattus norvegicus [1], the “DOPAC level (% of control)” value came to 314%. The results for the Ki (in assay [3] (read-out: Ki); in assay [3] (read-out: pKi (converted)); on D(2) dopamine receptor) were over 583 µM, over 631 µM and 0.27 µM, respectively. On to `CCCN1CCN(c2ccccc2O)CC1`, for which, in the assay on Rattus norvegicus [1], the “DOPAC level (% of control)” value is given as 270%. In the case of `CCCN1CCN(c2cccc(C(F)(F)F)c2)CC1`, the Activity in the assay with Rattus norvegicus [4] came to 315%.

On to `CCCN1CCN(c2cccc(S(C)(=O)=O)c2)CC1`, for which the Ki in assay [3] (read-out: Ki) was 126 µM. Regarding `CCCN1CCN(c2ccccc2OC)CC1`, the “DOPAC level (% of control)” value in the assay on Rattus norvegicus [1] was 370%. The values for the Ki (in assay [3] (read-out: Ki); in assay [3] (read-out: pKi (converted)); at D(2) dopamine receptor) were over 583 µM, over 631 µM and 0.022 µM, respectively.
